Assay [1] relates to serum antibodies of HIV-1-infected subjects. The experiment in a line: ELISA reactivity of phagotopes with human sera (LTNP, AIDS, HIV-negative). It counts as binding. To be noted: for antibody titers to phagotope in sera from LTNPs versus AIDS patients: p<0.05, one-sided Student's t test. From the text: FIG. 1. ELISA reactivities of HIV-specific phagotopes. a, LTNP and AIDS subjects were selected as reported (Pantaleo et al., N. Engl. J Med 332:209 (1995)). HIV-specific phagotopes were identified from RPL pVIII9aa-cys (selection 1), or pVIII9aa (selection 2) by serial steps of screening and phage colony purification as described in the Methods section. Results are expressed as fold increase of the average values of the phagotopes over values of the wild-type phages. Values were considered positive when at least four-fold higher than the background signal of wild-type phage. Average values of at least four independent assays are shown as <4; 4<<10; 10.1<<20; >20. The far right column indicates the recognition frequency of positive sera by each phagotope (f). The percentages of significant phage reactivity in the HIV-positive and control groups were compared using the Fisher Exact Test; p values (p<0.001) were adjusted for multiple testing using the Bonferroni method. b, Comparison of ELISA reactivities of phagotopes with sera of LTNP (hatched bars) versus AIDS subjects (black bars). Data are expressed as mean±SEM of fold increase for each phagotope. Statistical analysis was performed according to the one-sided Student's t test; asterisks indicate p<0.05.
To validate that the bound phagotopes carry HIV-specific epitopes, positive colonies were tested by ELISA for reactivity with sera from multiple HIV-infected individuals and counter-screened with an equivalent number of sera from HIV-negative subjects. For the EJISA analysis, microtiter plates were coated with anti M13 antibody (Pharmacia, Piscataway, N.J.) at 10 μg/ml overnight at 4° C. in coating buffer. Fifty μl of cleared phage supernatant with an equal volume of blocking buffer were incubated for 1 h at 37° C. Plates were washed extensively and supplemented with human serum at 1:100 dilution followed by an overnight incubation at 4° C. After washing, wells were coated with an anti-human (Fc-specific) alkaline phosphatase-conjugated antibody. Plates were washed and developed. Results were expressed as the difference between OD405 nm and OD620 nm by an ELISA reader.
(ELISA stands for enzyme-linked immunosorbent assay.)

A short description of assay [2]: ELISA reactivities of engineered (modified) peptide epitopes. It counts as binding. The procedure:
The amino acid sequences of modifed peptides generated in this manner are as follows: • P195 analog: […] (SEQ ID NO: 14) • P197 analog: […] (SEQ ID NO:15) • P217 analog: […] (SEQ ID NO:16) • P287 analog: […] (SEQ ID NO: 17) • P335 analog: CSGRLYCHESWC (SEQ ID NO:18) • P54 analog: TKTLIYQGA (SEQ ID NO:19) The engineered eptiopes are then determined to be immunogenic as described in Example 4-6.

In assay [3] the test system is binding of phagotope-specific antibodies to HIV-1. The experiment in a line: Displacement of binding of phagotope-specific antibodies to HIV-1 by phagotopes or peptides (ELISA). To be noted: increasing concentrations of peptide. The procedure:
FIG. 3. Phagotope-specific antibodies bind to HIV-1. a, ELISA reactivities of immunoaffinity purified antibodies with HIV-1. Antibodies were immunoaffinity purified from LTNP serum 6090 using single phagotopes as ligands and tested for ELISA reactivity against HIV-1 virions by using a standard ELISA kit (Organon). Purified antibodies were tested at 5-10 ng/ml; HIV-negative (CS) and serum 6090 (HIV-1S) were tested at 1:100 dilution. Data are expressed as mean±SEM of four independent determinations. b, The binding of phagotope-specific antibodies to HIV-1 is specifically displaced by the related phagotopes. ELISA reactivities of single immunopurified antibodies to HIV-I were tested in the presence of the indicated concentrations of p195 (▪), p197 (♦), p217 (●), p287 (▴), p335(▾). […] ELISA reactivities of single immunoaffinity purified antibodies with the related phagotopes were tested in the presence of increasing concentrations of peptides 195 (▪), 197 (▴), 217 (♦), 287 (ρ), 335 (●). d, HIV-1 immunoblotting with phagotope-specific human antibodies. Immunoffinity purified antibodies were tested at 60 ng/ml for binding to HIV-1 proteins in Western blot by a diagnostic kit (Cambridge Biotech.); 6090 LTNP serum was tested at 1:1000 dilution.
The phagotope specific antibodies, purified from serum to IgG concentrations of 5-10 ng/ml, recognized HIV-1 proteins by ELISA (FIG. 3a); this reactivity was specifically displaced by the related phagotopes, but not by wild-type or unrelated phages (FIG. 3b and data not shown).

Assay [4] concerns sera of SHIV-infected monkeys. The experiment in a line: ELISA reactivity of monkey sera with HIV-specific phagotopes. It counts as binding, macaques. To be noted: nine SHIV-infected monkeys. The procedure:
FIG. 4. ELISA reactivities of monkey sera with HIV-specific phagotopes. Sera of naive monkeys (SHIV Negative) and SHIV-infected animals were tested for binding to HIV-1 phagotopes. Results are expressed as fold increase of OD405 nm values of tested phagotope over the OD405 nm values of wild-type-phage. Cutoff values were set as detailed in the legend to FIG. 1a. All the pre-infection sera of SHIV-positive animals tested negative by ELISA (not shown). A125, 42C, E50 and AK98 are Rhesus macaques; 4138, 4150 and 79 are cynomologous macaques; these animals were infected with SHIVMD1 (Shibata et al., J. Infect. Dis. 176:362 (1997)). 17860 and 17846 are pigtail macaques infected with SHIVMD14YE (Shibata et al., J. Infect. Dis. 176:362 (1997)).
In order to test this hypothesis, sera of nine SHIV-infected monkeys and of four uninfected control animals were tested for ELISA reactivity with the pool of HIV mimotopes. As in the case of HIV-1 infected subjects (FIG. 1a), sera of SHIV-infected monkeys recognized the HIV-1 phagotopes with variable frequencies (FIG. 4).

As to SGRLYCHESW [p335], the “antibody titers to phagotope in sera from LTNPs versus AIDS patients” value in assay [1] is “significantly higher in sera from LTNPs”.

Take TKTLIYQGA [P54 analog]: in assay [2], the “ELISA reactivities compared with the original peptides displayed on the phagotopes” value is on record as “similar”. On to CSGRLYCHESWC [P335 analog], for which the “ELISA reactivities compared with the original peptides displayed on the phagotopes” value in assay [2] is recorded as “similar”.

Turning to EGEFCCNGRLYCQPCGDPAK [P217 analog], the “ELISA reactivities compared with the original peptides displayed on the phagotopes” value in assay [2] is on record as “similar”. Take CCGCLTCSV [compound 287]: the “displacement of antibody binding to HIV-1 by peptides in solution” value (“displacement of antibody binding” for short) in assay [3] is “Only a partial competition”. In the case of EGEFCKSSGKLISLCGDPAK [P195 analog], the “ELISA reactivities compared with the original peptides displayed on the phagotopes” value in assay [2] is on record as “similar”. In the case of CNGRLYCGP [p217], the “recognition frequency (f) of positive sera by phagotope” value in assay [1] (22 LTNP sera and 25 AIDS sera, serum 1:100, positive = at least four-fold over wild-type phage) was 23%. The “antibody titers to phagotope in sera from LTNPs versus AIDS patients” value in assay [1] was “significantly higher in sera from LTNPs”. Besides, the “ELISA reactivity with AIDS sera” value in assay [1] (pool of AIDS sera) is “completely unreactive”. For SGRLYCHESW [compound 335], the “displacement of antibody binding” value in assay [3] was “effectively displaced”. As to KSSGKLISL [compound 195], the “displacement of antibody binding” value in assay [3] is recorded as “effectively displaced”. Take EGEFCCAGQLTCSVCGDPAK [P287 analog]: in assay [2], the “ELISA reactivities compared with the original peptides displayed on the phagotopes” value is “similar”. In the case of CNGRLYCGP [peptide 217], the “displacement of antibody binding” value in assay [3] is “Only a partial competition”. Regarding TKTLIYGGA [p54], in assay [4], the “ELISA reactivity with sera of SHIV-infected monkeys” value is “certain SHIV sera recognized”. Consider GTKLVCFAA [compound 197], for which, in assay [3], the “displacement of antibody binding” value was “effectively displaced”. For EGEFCQTKLVCFAAAGDPAK [P197 analog], the “ELISA reactivities compared with the original peptides displayed on the phagotopes” value in assay [2] is recorded as “similar”.

The values are drawn from patent US6911527B1, “HIV related peptides” (The United States of America as represented by the …, priority 1999, dated 2005).
